From ChEMBL document CHEMBL1149112, “Predicting the cell differentiation activity of 1 alpha,25-dihydroxyvitamin D3 side chain analogues from docking simulations” (J Med Chem, 2004)

Assays:
[1] = target: T1, Vitamin D3 receptor (Homo sapiens) (UniProt P11473); assay: Binding affinity against Vitamin D3 receptor with reference to compound 1; value ranges from 15-30
T1 sequence (whole entry): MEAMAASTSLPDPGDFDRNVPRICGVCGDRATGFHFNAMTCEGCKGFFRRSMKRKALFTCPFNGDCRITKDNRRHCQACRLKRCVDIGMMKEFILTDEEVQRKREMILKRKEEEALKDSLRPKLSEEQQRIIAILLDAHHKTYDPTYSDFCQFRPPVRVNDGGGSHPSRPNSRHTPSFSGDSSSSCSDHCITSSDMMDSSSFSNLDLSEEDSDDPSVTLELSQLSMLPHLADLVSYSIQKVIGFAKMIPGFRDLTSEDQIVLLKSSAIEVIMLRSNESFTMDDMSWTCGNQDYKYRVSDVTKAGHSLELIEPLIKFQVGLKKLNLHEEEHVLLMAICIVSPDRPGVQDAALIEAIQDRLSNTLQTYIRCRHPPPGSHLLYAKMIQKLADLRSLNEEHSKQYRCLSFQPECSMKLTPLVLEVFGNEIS

[2] = target: T1, Vitamin D3 receptor (Homo sapiens); assay: Binding affinity against Vitamin D3 receptor with reference to compound 1; value ranges from 2-5
[3] = target: T1, Vitamin D3 receptor (Homo sapiens); assay: Binding affinity against Vitamin D3 receptor with reference to compound 1
[4] = target: T1, Vitamin D3 receptor (Homo sapiens); assay: Binding affinity for Vitamin D3 receptor compared to compound 1; value ranges from 5-10

| Structure (SMILES) | A/Ad [3] | other results |
| --- | --- | --- |
| C=C1/C(=C/C=C2/CCC[C@]3(C)[C@@H](C(C)OCCC(O)(CC)CC)CC[C@@H]23)C[C@@H](O)C[C@@H]1O (some centres undefined) |  | A/Ad [1]: 30 |
| C=C1/C(=C/C=C2/CCC[C@]3(C)[C@@H]([C@H](C)CCCC(O)(CC)CC)CC[C@@H]23)C[C@@H](O)C[C@@H]1O |  | A/Ad [2]: 5 |
| C=C1/C(=C/C=C2/CCC[C@]3(C)C([C@H](C)OCCCC(O)(CC)CC)CC[C@@H]23)C[C@@H](O)C[C@@H]1O (single isomer, unassigned) | 20 |  |
| C=C1/C(=C/C=C2/CCC[C@]3(C)[C@@H]([C@@H](C)OCCCC(O)(CC)CC)CC[C@@H]23)C[C@@H](O)C[C@@H]1O | 200000 |  |
| C=C1/C(=C/C=C2/CCC[C@]3(C)C(C(C)OCCC(C)(C)O)CC[C@@H]23)C[C@@H](O)C[C@@H]1O (single isomer, unassigned) |  | A/Ad [4]: 10 |
| C=C1/C(=C/C=C2/CCC[C@@]3(C)[C@H]2CC[C@H]3[C@@H](C)CCCCC(O)(CC)CC)C[C@@H](O)C[C@@H]1O | 5 |  |
| C=C1/C(=C/C=C2/CCC[C@]3(C)[C@@H]([C@@H](C)CCCC(O)(CC)CC)CC[C@@H]23)C[C@@H](O)C[C@@H]1O | 100 |  |
| C=C1/C(=C/C=C2/CCC[C@]3(C)[C@@H](C(C)COCC(C)(C)O)CC[C@@H]23)C[C@@H](O)C[C@@H]1O (some centres undefined) | 0.2 |  |
| C=C1/C(=C/C=C2/CCC[C@]3(C)[C@@H]([C@@H](C)CCCCC(O)(CC)CC)CC[C@@H]23)C[C@@H](O)C[C@@H]1O | 200 |  |
